Laboratory results as given in patent US20200107568A1, “METHOD FOR REDUCING LINGERING SWEET AFTERTASTE” (SUNTORY HOLDINGS LIMITED, priority 2017, published 2020).

Molecular target: T1, taste receptor (Homo sapiens, UniProt Q7RTX0+Q8TE23)
T1 construct: endogenous in cells; host or cells: taste cells in the mouths of human panelists (in vivo tasting test)
T1 sequence (Q8TE23 20-839): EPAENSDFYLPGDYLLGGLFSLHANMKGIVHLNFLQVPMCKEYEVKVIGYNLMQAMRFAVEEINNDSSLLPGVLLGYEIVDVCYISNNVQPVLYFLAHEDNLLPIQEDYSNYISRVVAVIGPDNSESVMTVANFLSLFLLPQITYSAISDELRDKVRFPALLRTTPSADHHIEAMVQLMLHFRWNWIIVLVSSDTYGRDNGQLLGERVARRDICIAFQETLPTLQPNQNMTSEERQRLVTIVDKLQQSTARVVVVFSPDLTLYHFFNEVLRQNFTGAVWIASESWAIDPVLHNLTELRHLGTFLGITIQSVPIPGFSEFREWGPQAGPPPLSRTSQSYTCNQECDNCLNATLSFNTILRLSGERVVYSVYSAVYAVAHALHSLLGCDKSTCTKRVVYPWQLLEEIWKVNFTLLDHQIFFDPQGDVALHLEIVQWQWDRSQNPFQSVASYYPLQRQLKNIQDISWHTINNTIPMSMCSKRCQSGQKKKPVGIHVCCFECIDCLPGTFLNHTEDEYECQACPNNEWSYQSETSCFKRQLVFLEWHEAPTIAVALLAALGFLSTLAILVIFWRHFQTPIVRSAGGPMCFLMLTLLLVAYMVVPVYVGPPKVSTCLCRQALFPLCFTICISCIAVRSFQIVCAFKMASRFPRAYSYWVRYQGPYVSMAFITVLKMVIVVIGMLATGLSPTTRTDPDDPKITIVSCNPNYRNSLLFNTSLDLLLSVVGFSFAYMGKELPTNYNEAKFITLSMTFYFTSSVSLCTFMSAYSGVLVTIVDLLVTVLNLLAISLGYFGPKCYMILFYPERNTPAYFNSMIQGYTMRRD
T1 sequence (Q7RTX0 21-852): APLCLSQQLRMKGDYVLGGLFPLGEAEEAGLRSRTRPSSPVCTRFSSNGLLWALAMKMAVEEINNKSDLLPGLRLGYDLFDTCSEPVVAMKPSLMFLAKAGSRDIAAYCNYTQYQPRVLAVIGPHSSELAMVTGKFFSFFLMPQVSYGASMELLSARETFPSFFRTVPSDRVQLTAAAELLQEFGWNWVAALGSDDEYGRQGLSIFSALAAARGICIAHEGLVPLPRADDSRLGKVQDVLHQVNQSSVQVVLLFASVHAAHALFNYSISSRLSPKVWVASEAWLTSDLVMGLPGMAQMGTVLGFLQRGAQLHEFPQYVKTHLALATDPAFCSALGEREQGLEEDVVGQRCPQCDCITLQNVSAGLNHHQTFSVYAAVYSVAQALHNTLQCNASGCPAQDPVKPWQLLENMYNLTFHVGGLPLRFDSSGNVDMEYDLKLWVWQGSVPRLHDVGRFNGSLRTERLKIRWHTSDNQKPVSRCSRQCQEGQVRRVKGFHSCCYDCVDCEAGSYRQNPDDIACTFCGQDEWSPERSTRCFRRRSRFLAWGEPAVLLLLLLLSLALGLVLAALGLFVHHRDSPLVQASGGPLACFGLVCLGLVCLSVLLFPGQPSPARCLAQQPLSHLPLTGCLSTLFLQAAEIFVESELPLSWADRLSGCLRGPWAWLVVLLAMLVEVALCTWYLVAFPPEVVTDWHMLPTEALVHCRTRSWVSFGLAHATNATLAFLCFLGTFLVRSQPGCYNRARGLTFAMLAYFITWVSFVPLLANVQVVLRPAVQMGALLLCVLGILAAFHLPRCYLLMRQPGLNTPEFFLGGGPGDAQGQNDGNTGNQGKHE
Experiment: Evaluation of sweet lingering by sensory panel, VAS sweetness intensity rating
Format: in vivo
Conditions: with respect to rebaudioside D (reference solution α1, 593 ppm); blend 1:1; N=4; found/theoretical index minus 1
Protocol: (1) A reference solution α (a beverage containing only a high-intensity sweetener as a sweetener), a reference solution β (a beverage containing another sweetener and having the same sweetness intensity as the reference solution α), and a sample solution γ (a beverage composed of a mixture of the reference solutions α and β at a predetermined ratio as a sample solution) are prepared in individual cups. (2) The mouth is rinsed thoroughly with water and emptied. This rinsing process is repeated four times. (3) A defined amount (10 ml) of the reference solution α, or β, or the sample solution γ is put in the mouth in one breath, and spit out after 5 sec. […]
A sweet lingering was measured by the above-described method of with respect to each of 3 solutions of a reference solution α, a reference solution β, and a sample solution γ composed thereof, which were adjusted to the same sweetness intensity. The order of the measurements was determined randomly for each evaluator. Next, the theoretical value of the sweet lingering of a sample solution γ is determined from the blend ratio (A:B) of the reference solution α to the reference solution β. […]
Each panel evaluated the respective sweet lingering of the reference solutions α1, and β1, and the sample solution γ1 by the above-described method. […]

Molecule	Effect of reducing a sweet lingering [%]
O=C(CO)[C@@H](O)[C@H](O)[C@H](O)CO [fructose]	7
thaumatin	43
